Columns and labels:
[1] = target: T1, NS3-NS4 (Hepatitis C virus genotype 1a, UniProt P27958); experiment: cell-based; conditions: EC50, NS3-NS4 activity
[2] = target: T1, NS3-NS4; experiment: NS3-NS4 activity, IC50 (Example 37, Table 8); format: biochemical

T1 sequence (P27958 1027-1657): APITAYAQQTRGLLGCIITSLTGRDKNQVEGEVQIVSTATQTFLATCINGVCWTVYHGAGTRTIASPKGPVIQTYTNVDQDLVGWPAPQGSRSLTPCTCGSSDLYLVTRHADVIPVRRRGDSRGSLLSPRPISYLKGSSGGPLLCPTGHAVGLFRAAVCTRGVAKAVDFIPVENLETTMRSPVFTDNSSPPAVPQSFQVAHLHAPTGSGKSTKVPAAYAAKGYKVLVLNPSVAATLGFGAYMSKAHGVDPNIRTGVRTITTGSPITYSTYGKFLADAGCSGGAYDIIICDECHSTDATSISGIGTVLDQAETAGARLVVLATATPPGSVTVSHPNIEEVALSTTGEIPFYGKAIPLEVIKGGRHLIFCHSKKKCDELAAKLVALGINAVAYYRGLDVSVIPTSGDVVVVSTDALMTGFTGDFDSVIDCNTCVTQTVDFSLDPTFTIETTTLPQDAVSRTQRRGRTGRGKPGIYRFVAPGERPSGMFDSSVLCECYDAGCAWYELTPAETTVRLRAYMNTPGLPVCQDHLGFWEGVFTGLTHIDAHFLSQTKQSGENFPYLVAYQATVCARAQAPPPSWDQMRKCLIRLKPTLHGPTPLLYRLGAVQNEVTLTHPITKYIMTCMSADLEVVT
T1 sequence (P27958 1658-1711): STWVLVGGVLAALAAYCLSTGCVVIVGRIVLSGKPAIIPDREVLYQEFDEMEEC

SMILES	EC50 [1] [nM]	IC50 [2] [nM]
O=C(N[C@H]1CCCCC/C=C\[C@@H]2C[C@@]2(C(=O)NS(=O)(=O)C2CC2)NC(=O)[C@@H]2C[C@@H](OC(=O)N3Cc4cccc(F)c4C3)CN2C1=O)OC1CCOC1 (some centres unmarked) [Compound 412]	< 100	< 100
CC(C)(C)OC(=O)N[C@H]1CCCCC[C@@H]2C[C@@H]2[C@@H]2C[C@@]2(C(=O)NS(=O)(=O)C2CC2)NC(=O)[C@@H]2C[C@@H](OC(=O)N3Cc4cccc(F)c4C3)CN2C1=O [Compound 902]	< 100	< 100
CC(C)(C)OC(=O)N[C@H]1CCCCC/C=C\[C@@H]2C[C@@]2(C(=O)NS(=O)(=O)C2(C)CC2)NC(=O)[C@@H]2C[C@@H](OC(=O)N3Cc4cccc(Cl)c4C3)CN2C1=O [Compound 445]	< 100	< 100
CC(C)(C)OC(=O)N[C@H]1CCCCC/C=C\[C@@H]2C[C@@]2(C(=O)NS(=O)(=O)c2ccc(Cl)cc2)NC(=O)[C@@H]2C[C@@H](OC(=O)N3Cc4cccc(F)c4C3)CN2C1=O [Compound 333]	< 100	< 100
Cc1ccc(C)c(CS(=O)(=O)NC(=O)[C@@]23C[C@H]2CCCCCCC[C@H](NC(=O)OC(C)(C)C)C(=O)N2C[C@H](OC(=O)N4Cc5cccc(F)c5C4)C[C@H]2C(=O)N3)c1 [Compound 629]	< 100	< 100
CC(C)(C)COC(=O)N[C@H]1CCCCC/C=C\[C@@H]2C[C@@]2(C(=O)NS(=O)(=O)c2ccc(Cl)cc2)NC(=O)[C@@H]2C[C@@H](OC(=O)N3Cc4cccc(F)c4C3)CN2C1=O [Compound 340]	< 100	< 100
CCc1cnc(N[C@H]2CCCCC/C=C\[C@@H]3C[C@@]3(C(=O)NS(=O)(=O)C3CC3)NC(=O)[C@@H]3C[C@@H](OC(=O)N4Cc5cccc(F)c5C4)CN3C2=O)s1 [Compound 230]	< 100	< 100
Cc1ccccc1CS(=O)(=O)NC(=O)[C@@]12C[C@H]1CCCCCCC[C@H](NC(=O)OC(C)(C)C)C(=O)N1C[C@H](OC(=O)N3Cc4cccc(F)c4C3)C[C@H]1C(=O)N2 [Compound 613]	< 100	< 100
O=C(N[C@H]1CCCCC/C=C\[C@@H]2C[C@@]2(C(=O)NS(=O)(=O)C2CC2)NC(=O)[C@@H]2C[C@@H](OC(=O)N3Cc4cccc(Cl)c4C3)CN2C1=O)O[C@@H]1CCOC1 [Compound 402, (2R,6S,13aS,14aR,16aS,Z)-14a-(cyclopropylsulfonylcarbamoyl)5,16-dioxo-6-(((R)-tetrahydrofuran-3-yloxy)carbonylamino)-1,2,3,5,6,7,8,9,10,11,13a,14,14a,15,16,16a-hexadecahydrocyclopropa[e]pyrrolo[1,2-a][1,4]diazacyclopentadecin-2-yl 4-chloroisoindoline-2-carboxylate]	< 100	< 100
CC(C)(C)OC(=O)N[C@H]1CCCCC/C=C\[C@@H]2C[C@@]2(C(=O)NOCc2ccccc2)NC(=O)[C@@H]2C[C@@H](OC(=O)N3Cc4cccc(F)c4C3)CN2C1=O [Compound 107]	1000 to 10000	< 100
CN(C(=O)N[C@H]1CCCCC/C=C\[C@@H]2C[C@@]2(C(=O)NS(=O)(=O)C2(C)CC2)NC(=O)[C@@H]2C[C@@H](OC(=O)N3Cc4cccc(F)c4C3)CN2C1=O)C(C)(C)C [Compound 440]	< 100	< 100
CCC(C)(C)OC(=O)N[C@H]1CCCCC/C=C\[C@@H]2C[C@@]2(C(=O)NS(=O)(=O)C2CC2)NC(=O)[C@@H]2C[C@@H](OC(=O)N3Cc4cccc(F)c4C3)CN2C1=O [Compound 405, (2R,6S,13aS,14aR,16aS,Z)-14a-(cyclopropylsulfonylcarbamoyl)-5,16-dioxo-6-(tert-pentyloxycarbonylamino)-1,2,3,5,6,7,8,9,10,11,13a,14,14a,15,16,16a-hexadecahydrocyclopropa[e]pyrrolo[1,2-a][1,4]diazacyclopentadecin-2-yl 4-fluoroisoindoline-2-carboxylate]	< 100	< 100
CC(C)(C)OC(=O)N[C@H]1CCCCC/C=C\[C@@H]2C[C@@]2(C(=O)NS(=O)(=O)c2cccc(F)c2)NC(=O)[C@@H]2C[C@@H](OC(=O)N3Cc4cccc(F)c4C3)CN2C1=O [Compound 350]	< 100	< 100
CC(C)(C)OC(=O)N[C@H]1CCCCC/C=C\[C@@H]2C[C@@]2(C(=O)NS(=O)(=O)Cc2ccc(C(F)(F)F)cc2)NC(=O)[C@@H]2C[C@@H](OC(=O)N3Cc4cccc(F)c4C3)CN2C1=O [Compound 519]	100 to 1000	< 100
O=C1N[C@]2(C(=O)NS(=O)(=O)C3CC3)C[C@H]2/C=C\CCCCC[C@H](NC(=O)N2CCC2)C(=O)N2C[C@H](OC(=O)N3Cc4cccc(F)c4C3)C[C@@H]12 [Compound 417]	< 100	< 100
CC1(OC(=O)N[C@H]2CCCCC/C=C\[C@@H]3C[C@@]3(C(=O)NS(=O)(=O)C3CC3)NC(=O)[C@@H]3C[C@@H](OC(=O)N4Cc5cccc(F)c5C4)CN3C2=O)CC1 [Compound 404, (2R,6S,13aS,14aR,16aS,Z)-14a-(cyclopropylsulfonylcarbamoyl)-6-((1-methylcyclopropoxy)carbonylamino)-5,16-dioxo-1,2,3,5,6,7,8,9,10,11,13a,14,14a,15,16,16a-hexadecahydrocyclopropa[e]pyrrolo[1,2-a][1,4]diazacyclopentadecin-2-yl 4-fluoroisoindoline-2-carboxylate]	< 100	< 100
CC(C)(C)OC(=O)N[C@H]1CCCCC/C=C\[C@@H]2C[C@@]2(C(=O)NS(=O)(=O)Cc2c(F)cccc2F)NC(=O)[C@@H]2C[C@@H](OC(=O)N3Cc4cccc(F)c4C3)CN2C1=O [Compound 521]	< 100	< 100

SMILES	EC50 [1] [nM]	IC50 [2] [nM]
CCCS(=O)(=O)NC(=O)[C@@]12C[C@H]1/C=C\CCCCC[C@H](NC(=O)OC(C)(C)C)C(=O)N1C[C@H](OC(=O)N3Cc4cccc(F)c4C3)C[C@H]1C(=O)N2 [Compound 550]	< 100	< 100
O=C1N[C@]2(C(=O)NS(=O)(=O)C3CC3)C[C@H]2/C=C\CCCCC[C@H](Nc2nc(-c3nc4ccccc4s3)cs2)C(=O)N2C[C@H](OC(=O)N3Cc4cccc(F)c4C3)C[C@@H]12 [Compound 217]	< 100	< 100
Cc1csc(S(=O)(=O)NC(=O)[C@@]23C[C@H]2/C=C\CCCCC[C@H](NC(=O)OC(C)(C)C)C(=O)N2C[C@H](OC(=O)N4Cc5cccc(F)c5C4)C[C@H]2C(=O)N3)c1 [Compound 539]	< 100	< 100
Cc1cc(C)cc(ONC(=O)[C@@]23C[C@H]2/C=C\CCCCC[C@H](NC(=O)OC(C)(C)C)C(=O)N2C[C@H](OC(=O)N4Cc5cccc(F)c5C4)C[C@H]2C(=O)N3)c1 [Compound 715]	1000 to 10000	< 100
Cc1ccc(S(=O)(=O)NC(=O)[C@@]23C[C@H]2/C=C\CCCCC[C@H](NC(=O)OC(C)(C)C)C(=O)N2C[C@H](OC(=O)N4Cc5cccc(F)c5C4)C[C@H]2C(=O)N3)o1 [Compound 533]	< 100	< 100
CC(C)(C)OC(=O)N[C@H]1CCCCC/C=C\[C@@H]2C[C@@]2(C(=O)NS(=O)(=O)c2cc(F)cc(F)c2)NC(=O)[C@@H]2C[C@@H](OC(=O)N3Cc4cccc(F)c4C3)CN2C1=O [Compound 309]	< 100	< 100
COc1cc(CS(=O)(=O)NC(=O)[C@@]23C[C@H]2CCCCCCC[C@H](NC(=O)OC(C)(C)C)C(=O)N2C[C@H](OC(=O)N4Cc5cccc(F)c5C4)C[C@H]2C(=O)N3)cc(OC)c1 [Compound 632]	100 to 1000	< 100
CC(C)(C)OC(=O)N[C@H]1CCCCCCC[C@@H]2C[C@@]2(C(=O)NOc2ccc(Cl)cc2)NC(=O)[C@@H]2C[C@@H](OC(=O)N3Cc4cccc(F)c4C3)CN2C1=O [Compound 809]	1000 to 10000	< 100
O=C(N[C@H]1CCCCC/C=C\[C@@H]2C[C@@]2(C(=O)NS(=O)(=O)C2CC2)NC(=O)[C@@H]2C[C@@H](OC(=O)N3Cc4cccc(Cl)c4C3)CN2C1=O)OC1CCOCC1 [Compound 411]	< 100	< 100
CC(C)(C)OC(=O)N[C@H]1CCCCC/C=C\[C@@H]2C[C@@]2(C(=O)NS(=O)(=O)c2cc(Cl)cs2)NC(=O)[C@@H]2C[C@@H](OC(=O)N3Cc4cccc(F)c4C3)CN2C1=O [Compound 536]	< 100	< 100
CC(C)(C)OC(=O)N[C@H]1CCCCC/C=C\[C@@H]2C[C@@]2(C(=O)NS(=O)(=O)Cc2cccc(Cl)c2)NC(=O)[C@@H]2C[C@@H](OC(=O)N3Cc4cccc(F)c4C3)CN2C1=O [Compound 511]	< 100	< 100
CC(C)C1(S(=O)(=O)NC(=O)[C@@]23C[C@H]2CCCCCCC[C@H](NC(=O)OC(C)(C)C)C(=O)N2C[C@H](OC(=O)N4Cc5cccc(F)c5C4)C[C@H]2C(=O)N3)CC1 [Compound 653]	< 100	< 100
CCC(C)(C)OC(=O)N[C@H]1CCCCC/C=C\[C@@H]2C[C@@]2(C(=O)NS(=O)(=O)c2ccccc2C)NC(=O)[C@@H]2C[C@@H](OC(=O)N3Cc4cccc(F)c4C3)CN2C1=O [Compound 337]	< 100	< 100
CC(C)(C)OC(=O)N[C@H]1CCCCC/C=C\[C@@H]2C[C@@]2(C(=O)NS(=O)(=O)c2cc(Cl)ccc2F)NC(=O)[C@@H]2C[C@@H](OC(=O)N3Cc4cccc(F)c4C3)CN2C1=O [Compound 314]	< 100	< 100
O=C1N[C@]2(C(=O)NS(=O)(=O)C3CC3)C[C@H]2/C=C\CCCCC[C@H](NC(=O)N2CC(F)(F)C2)C(=O)N2C[C@H](OC(=O)N3Cc4cccc(F)c4C3)C[C@@H]12 [Compound 418]	< 100	< 100
CCCS(=O)(=O)NC(=O)[C@@]12C[C@H]1CCCCCCC[C@H](NC(=O)OC(C)(C)C)C(=O)N1C[C@H](OC(=O)N3Cc4cccc(F)c4C3)C[C@H]1C(=O)N2 [Compound 655]	< 100	< 100
CONC(=O)[C@@]12C[C@H]1/C=C\CCCCC[C@H](NC(=O)OC(C)(C)C)C(=O)N1C[C@H](OC(=O)N3Cc4cccc(F)c4C3)C[C@H]1C(=O)N2 [Compound 104, (2R,6S,13aS,14aR,16aS,Z)-6-(tert-butoxycarbonylamino)-14a-(methoxycarbamoyl)-5,16-dioxo-1,2,3,5,6,7,8,9,10,11,13a,14,14a,15,16,16a-hexadecahydrocyclopropa[e]pyrrolo[1,2-a][1,4]diazacyclopentadecin-2-yl 4-fluoroisoindoline-2-carboxylate]	1000 to 10000	< 100
